# Measurements as given in patent US20240108702A1, “Use Of Naturally Occurring Cyclic Peptides For Treatment Of SARS-COV-2 Infection” (The University of Southern California, priority 2021, published 2024).
# Like-named read-outs stand apart in the source and are kept apart here. Where a SMILES comes first, the peptide text is derived from it. Bridges are numbered along the chain shown (N, C = ends).
# What was measured:
# [1] = cynomolgus
# in vivo [2] = conditions: rat
# in vivo [3] = conditions: both, Sprague-Dawley, rat, iv
# [4] = rats
# TMPRSS2 = TMPRSS2 (Homo sapiens, UniProt O15393); assay: Cellular TMPRSS2 inhibition assay in Calu3 cells; type: cell-based; set-up: endogenous in cells; host or cells: Calu3 (Calu-3) cells
# Method: TMPRSS2 inhibition assays. Peptides (0-50 μg/ml) were tested for their inhibitory activities against TMPRSS2 in cellular assays using Vero E6 cells, Caco-2 cells, or Calu-3 cells using standard conditions. TMPRSS2 activity was assayed in real time for 120 min by monitoring the cleavage of the TMPRSS2 substrate, Boc-Leu-Gly-Arg-AMC. Following the 2 h enzyme assay, cells were evaluated for viability using the CellTiter-Glo cellular toxicity assay.
# [5] = Mouse model of LPS-induced acute lung injury (ALI), subcutaneous injection; conditions: in vivo, sc
# in vivo [6] = conditions: both, cynomolgus monkey; for AUC(0-inf) / AUC / clearance / Cmax / MRT inf / Vd: iv, cynomolgus; for AUC(0-inf): AUC0-∞; for AUC: AUCτ; for clearance: CL; for MRT inf: MRTinf; for Vd: Vss
# [7] = 0.3 mg/kg, 0.3 mg/kg i.v., Day 1, mean
# [8] = 1 mg/kg, 1 mg/kg i.v., Day 1, mean
# [9] = 3 mg/kg, 3 mg/kg i.v., Day 1, mean
# [10] = 5 mg/kg, 5 mg/kg i.v., Day 1, mean
# [11] = 5 mg/kg/day, 5 mg/kg/day i.v., Day 10, mean
# [12] = 10 mg/kg, 10 mg/kg i.v., Day 1, mean
# [13] = 10 mg/kg/day, 10 mg/kg/day i.v., Day 10, mean
# [14] = 15 mg/kg, 15 mg/kg i.v., Day 1, mean
# [15] = 15 mg/kg/day, 15 mg/kg/day i.v., Day 4, mean
# [16] = 15 mg/kg/day, 15 mg/kg/day i.v., Day 7, mean
# [17] = 15 mg/kg/day, 15 mg/kg/day i.v., Day 10, mean
# TMPRSS2, sequence (O15393 whole entry): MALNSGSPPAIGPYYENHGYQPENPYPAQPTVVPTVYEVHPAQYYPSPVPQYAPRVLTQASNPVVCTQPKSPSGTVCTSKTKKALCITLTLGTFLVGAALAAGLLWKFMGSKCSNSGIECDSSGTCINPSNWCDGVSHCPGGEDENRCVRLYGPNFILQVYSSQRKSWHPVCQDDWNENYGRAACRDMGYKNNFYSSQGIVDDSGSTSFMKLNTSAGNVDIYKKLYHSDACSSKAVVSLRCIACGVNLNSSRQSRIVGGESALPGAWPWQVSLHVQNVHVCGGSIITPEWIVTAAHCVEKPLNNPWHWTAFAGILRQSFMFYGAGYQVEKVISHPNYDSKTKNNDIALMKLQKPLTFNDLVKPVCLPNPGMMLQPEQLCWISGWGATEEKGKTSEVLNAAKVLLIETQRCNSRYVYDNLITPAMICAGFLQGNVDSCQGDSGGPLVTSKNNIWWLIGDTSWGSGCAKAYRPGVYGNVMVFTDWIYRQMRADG
smiles,measurement,setting,value
"CC[C@H](C)[C@@H]1NC(=O)[C@@H]2CSSC[C@H](NC(=O)[C@H](CCCNC(=N)N)NC(=O)[C@@H]3CSSC[C@H](NC1=O)C(=O)N[C@@H]([C@@H](C)O)C(=O)N[C@@H](CCCNC(=N)N)C(=O)NCC(=O)N[C@@H](Cc1ccccc1)C(=O)N3)C(=O)N[C@@H](CC(C)C)C(=O)N[C@H]1CSSC[C@H](NC(=O)[C@H](C(C)C)NC(=O)CNC(=O)[C@H](CCCNC(=N)N)NC(=O)[C@H](CCCNC(=N)N)NC1=O)C(=O)N[C@@H](CCCNC(=N)N)C(=O)N2 [Peptide 1] (cyclo(GFCRCLCRRGVCRCICTR); disulfide 3-16, 5-14, 7-12)",λz,"[1]; 0.3 mg/kg i.v., Day 1, mean",0.523 h⁻¹
same,λz,"[1]; 1 mg/kg i.v., Day 1, mean",0.251 h⁻¹
same,λz,"[1]; 3 mg/kg i.v., Day 1, mean",0.078 h⁻¹
same,"accumulation, mean AUCτ Day 10 vs mean AUC0-∞ Day 1",[1]; 5 mg/kg,approximately 1.4 fold
same,λz,"[1]; 5 mg/kg i.v., Day 1, mean",0.323 h⁻¹
same,λz,"[1]; 5 mg/kg/day i.v., Day 10, mean",0.157 h⁻¹
same,"accumulation, mean AUCτ Day 10 vs mean AUC0-∞ Day 1",[1]; 10 mg/kg,~1.5 fold
same,λz,"[1]; 10 mg/kg i.v., Day 1, mean",0.192 h⁻¹
same,λz,"[1]; 10 mg/kg/day i.v., Day 10, mean",0.120 h⁻¹
same,λz,"[1]; 15 mg/kg i.v., Day 1, mean",0.149 h⁻¹
same,λz,"[1]; 15 mg/kg/day i.v., Day 4, mean",0.072 h⁻¹
same,λz,"[1]; 15 mg/kg/day i.v., Day 7, mean",0.071 h⁻¹
same,λz,"[1]; 15 mg/kg/day i.v., Day 10, mean",0.078 h⁻¹
same,time plasma concentrations detectable post end of infusion,[1]; single dose of 0.3 or 1 mg/kg,up to 12 h
same,MTD,in vivo [2],20 mg/kg
same,NOAEL at 7 days,in vivo [3],10 mg/kg/day
same,AUCτ on Day 7 lower than AUC0-∞ on Day 1,[4]; 5 mg/kg group,22%
same,λz,"[4]; 5 mg/kg i.v., Day 1",0.056 h⁻¹
same,λz,"[4]; 5 mg/kg/day i.v., Day 7",0.104 h⁻¹
same,AUCτ on Day 7 lower than AUC0-∞ on Day 1,[4]; 10 mg/kg group,19%
same,λz,"[4]; 10 mg/kg i.v., Day 1",0.148 h⁻¹
same,λz,"[4]; 10 mg/kg/day i.v., Day 7",0.133 h⁻¹
same,λz,"[4]; 20 mg/kg i.v., Day 1",0.221 h⁻¹
same,plasma levels during recovery period,"[4]; Day 25, all but one rat",undetectable
same,IC50,TMPRSS2,3.12 to 3.84 µM
same,AUC(0-inf),[5]; 5 mg/kg,3870 ng·h/mL
same,AUC(0-inf),[5]; 25 mg/kg,9000 ng·h/mL
same,half-life,in vivo [6],9.53 h
same,half-life,in vivo [6]; 15 mg/kg,47.2 h
same,AUC(0-inf),in vivo [6]; [7],617 ng·h/mL
same,AUC,in vivo [6]; [7],591 ng·h/mL
same,clearance,in vivo [6]; [7],8.3 mL/min/kg
same,Cmax,in vivo [6]; [7],582 ng/mL
same,MRT inf,in vivo [6]; [7],1.24 h
same,Vd,in vivo [6]; [7],0.626 L/kg
same,AUC(0-inf),in vivo [6]; [8],3880 ng·h/mL
same,AUC,in vivo [6]; [8],3820 ng·h/mL
same,clearance,in vivo [6]; [8],4.43 mL/min/kg
same,Cmax,in vivo [6]; [8],2560 ng/mL
same,MRT inf,in vivo [6]; [8],1.82 h
same,Vd,in vivo [6]; [8],0.486 L/kg
same,AUC(0-inf),in vivo [6]; [9],10700 ng·h/mL
same,AUC,in vivo [6]; [9],10300 ng·h/mL
same,clearance,in vivo [6]; [9],4.78 mL/min/kg
same,Cmax,in vivo [6]; [9],4750 ng/mL
same,MRT inf,in vivo [6]; [9],4.3 h
same,Vd,in vivo [6]; [9],1.22 L/kg
same,AUC(0-inf),in vivo [6]; [10],27200 ng·h/mL
same,AUC,in vivo [6]; [10],27200 ng·h/mL
same,clearance,in vivo [6]; [10],3.13 mL/min/kg
same,Cmax,in vivo [6]; [10],10700 ng/mL
same,MRT inf,in vivo [6]; [10],2.94 h
same,Vd,in vivo [6]; [10],0.55 L/kg
same,AUC(0-inf),in vivo [6]; [11],40000 ng·h/mL
same,AUC,in vivo [6]; [11],38900 ng·h/mL
same,clearance,in vivo [6]; [11],2.27 mL/min/kg
same,Cmax,in vivo [6]; [11],11700 ng/mL
same,MRT inf,in vivo [6]; [11],4.84 h
same,Vd,in vivo [6]; [11],0.645 L/kg
same,AUC(0-inf),in vivo [6]; [12],76800 ng·h/mL
same,AUC,in vivo [6]; [12],76100 ng·h/mL
same,clearance,in vivo [6]; [12],2.38 mL/min/kg
same,Cmax,in vivo [6]; [12],26700 ng/mL
same,MRT inf,in vivo [6]; [12],4.4 h
same,Vd,in vivo [6]; [12],0.629 L/kg
same,AUC(0-inf),in vivo [6]; [13],125000 ng·h/mL
same,AUC,in vivo [6]; [13],118000 ng·h/mL
same,clearance,in vivo [6]; [13],1.48 mL/min/kg
same,Cmax,in vivo [6]; [13],27300 ng/mL
same,MRT inf,in vivo [6]; [13],7.2 h
same,Vd,in vivo [6]; [13],0.624 L/kg
same,AUC(0-inf),in vivo [6]; [14],142000 ng·h/mL
same,AUC,in vivo [6]; [14],138000 ng·h/mL
same,clearance,in vivo [6]; [14],1.9 mL/min/kg
same,Cmax,in vivo [6]; [14],46500 ng/mL
same,MRT inf,in vivo [6]; [14],5.48 h
same,Vd,in vivo [6]; [14],0.629 L/kg
same,AUC(0-inf),in vivo [6]; [15],167000 ng·h/mL
same,AUC(0-inf),in vivo [6]; [16],188000 ng·h/mL
same,AUC(0-inf),in vivo [6]; [17],213000 ng·h/mL
same,AUC,in vivo [6]; [15],140000 ng·h/mL
same,AUC,in vivo [6]; [16],154000 ng·h/mL
same,AUC,in vivo [6]; [17],173000 ng·h/mL
same,clearance,in vivo [6]; [15],1.78 mL/min/kg
same,clearance,in vivo [6]; [16],1.63 mL/min/kg
same,clearance,in vivo [6]; [17],1.72 mL/min/kg
same,Cmax,in vivo [6]; [15],31100 ng/mL
same,Cmax,in vivo [6]; [16],32800 ng/mL
same,Cmax,in vivo [6]; [17],32200 ng/mL
same,MRT inf,in vivo [6]; [15],11.8 h
same,MRT inf,in vivo [6]; [16],12.3 h
same,MRT inf,in vivo [6]; [17],12 h
same,Vd,in vivo [6]; [15],1.26 L/kg
same,Vd,in vivo [6]; [16],1.19 L/kg
same,Vd,in vivo [6]; [17],1.14 L/kg
